A word on the Kd: it is the constant that tells how readily two partners part at equilibrium.

SMILES strings stand for the structures. Where only a bound is given, the exact number is not on record here.

Consider four compounds from US10106516B2, “PDE10 inhibitors and related compositions and methods” (Omeros Corporation, priority 2010, dated 2018).

Test [1] has as its system C57BL/6 male mice. The experiment in a line: Conditioned avoidance response (CAR) model of psychosis. Format: in vivo. To be noted: 12 mg/kg oral gavage, 30 minutes before testing; vs vehicle. Here is the method:
(§1) Dosing of the compounds is by intraperitoneal (i.p.) injection or oral gavage (p.o.). Intraperitoneal injection is accomplished by restraining the animal, exposing the abdomen and inserting the needle just above the knees on the mouse's right side. Oral gavage is performed by restraining the animal in such a way that its head is tilted back and the esophagus is relatively straight. The gavage needle (20 G×1.5″, Cadence Science) is inserted into the mouth in line with the body and gently pushed along the esophagus and into the stomach. If resistance is encountered the needle is removed and reinserted.
Conditioned avoidance response (CAR) is a behavioral test to evaluate the antipsychotic effect of a test compound. It utilizes a shuttle box (Med Associates, St. Albans, Vt.) with two identical chambers separated by a retractable door. Each chamber is fitted with a metal grid floor that is capable of delivering electric shocks independently. A computer program is used to implement the testing paradigm as well as record the animal's movement between the two chambers through infrared beam sensors. The testing paradigm is as follows. A mouse is placed into one chamber. A light (conditioned stimulus, CS) comes on. Five seconds later, mild electric shocks (0.4 mA; (unconditioned stimulus, US) are delivered to the chamber where the mouse is located (as detected by infrared beams) until the mouse escapes to the adjacent chamber or until 10 sec has elapsed. The US and CS always co-terminate. With randomized inter-trial intervals averaging 15 sec, 30 such CS-US pairing trials are given to each mouse each day. For each trial, an escape response is registered if the mouse crosses to the other chamber after being shocked (i.e., during the 10-sec US period), and an avoidance response is registered if the mouse crosses to the other chamber during the first 5-sec CS only period. The animals are trained in this paradigm for 30-40 days, during which the average percentage of avoidance responses will improve to 80-90%. […] These trained animals are then used for compound testing with the same paradigm.
C57BL/6 male mice were trained in the CAR paradigm to predict and avoid the noxious stimulus (foot shock), reaching a plateau of approximately 25 avoidance responses per 30 trials each day. […] Vehicle treatment and compound treatment were given to the same animals on alternating days, and the effect of compound in reducing avoidance response was analyzed through within-subject comparison (paired t-test).
C57BL/6 male mice were trained in the CAR paradigm to predict and avoid the noxious stimulus (foot shock), reaching a plateau of approximately 25-28 avoidance responses per 30 trials (“training plateau”) each day. […] Vehicle treatment and compound treatment were given to the same animals on alternating days, and the effect of compound in reducing avoidance response was analyzed through within-subject comparison (paired t-test).

Test [2] has as its system C57BL/6 male mice. The experiment in a line: PCP-induced hyperactivity model of psychosis. In kind it is in vivo. The settings on record: vs vehicle+PCP control. Here is the method:
as §1
Psychostimulant-induced hyperactivity is measured by injecting animals with PCP and monitoring the animals' activity levels in VersaMax chambers (Accuscan Instruments, Columbus, Ohio) measuring 40×40 cm. Locomotor activity is detected by photobeam breaks as the animal crosses each beam. The animal is placed in the center of the field and left undisturbed for 20 minutes to measure its spontaneous activity in a novel environment. Measurements used to assess locomotor activity include: horizontal activity, total distance traveled, vertical activity (rearing events—animal raises up on hindlimbs), rotation, stereotypy, and distance traveled in the center compared to total distance traveled (center:total distance ratio). The NMDA antagonist PCP induces a psychosis-like syndrome manifest as hyperactivity and increased stereotypic behavior. Known antipsychotics are able to reverse psychostimulant-induced hyperactivity and stereotypy.
C57BL/6 male mice were given either compound 1-1 or vehicle by intraperitoneal injection (FIG. 1) or oral gavage (FIG. 2). Twenty minutes (for i.p.) or forty minutes (for p.o.) later, they were injected with PCP (5 mg/kg, i.p.). Ten minutes later, the mice were placed in activity chambers and their locomotor activity in the horizontal dimension was monitored by infrared beam breaks for 20 min (5 consecutive 4-minute intervals (INT) as indicated).
C57BL/6 male mice were given either compound 2-1 or vehicle by intraperitoneal injection (FIG. 3) or oral gavage (FIG. 4). Twenty minutes (for i.p.) or 40 minutes (for p.o.) later, they were injected with PCP (5 mg/kg, i.p.). Ten minutes later, the mice were placed in activity chambers and their locomotor activity in the horizontal dimension was monitored by infrared beam breaks for 20 min (5 consecutive 4-minute intervals (INT) as indicated).
C57BL/6 male mice were given either compound 11-1 or vehicle by intraperitoneal injection. Five minutes later they were injected with PCP (5 mg/kg, i.p.). Ten minutes later, the mice were placed in activity chambers and their locomotor activity in the horizontal dimension was monitored by infrared beam breaks for 20 min (5 consecutive 4-minute intervals (INT) as indicated).

Test [3] addresses T1, PDE10 (Homo sapiens, UniProt Q9Y233).
T1 construct: made in house; host or cells: Sf9 insect cells (baculovirus)
Description: PDE10 biochemical assay (two-step Thompson and Appleman method or SPA). To be noted: PDE10 inhibition.

The test system of test [4] is PDE10. To be noted: Soderling and Beavo 2000, read-out: IC50 (50% inhibitory concentration); cited from earlier work.
The target in test [5] is PDE10. The settings on record: PDE10, in vitro binding studies; read-out: dissociation constant (Kd) for cGMP binding; cited from earlier work.

T1 sequence (Q9Y233 1-779 isoform Q9Y233-1): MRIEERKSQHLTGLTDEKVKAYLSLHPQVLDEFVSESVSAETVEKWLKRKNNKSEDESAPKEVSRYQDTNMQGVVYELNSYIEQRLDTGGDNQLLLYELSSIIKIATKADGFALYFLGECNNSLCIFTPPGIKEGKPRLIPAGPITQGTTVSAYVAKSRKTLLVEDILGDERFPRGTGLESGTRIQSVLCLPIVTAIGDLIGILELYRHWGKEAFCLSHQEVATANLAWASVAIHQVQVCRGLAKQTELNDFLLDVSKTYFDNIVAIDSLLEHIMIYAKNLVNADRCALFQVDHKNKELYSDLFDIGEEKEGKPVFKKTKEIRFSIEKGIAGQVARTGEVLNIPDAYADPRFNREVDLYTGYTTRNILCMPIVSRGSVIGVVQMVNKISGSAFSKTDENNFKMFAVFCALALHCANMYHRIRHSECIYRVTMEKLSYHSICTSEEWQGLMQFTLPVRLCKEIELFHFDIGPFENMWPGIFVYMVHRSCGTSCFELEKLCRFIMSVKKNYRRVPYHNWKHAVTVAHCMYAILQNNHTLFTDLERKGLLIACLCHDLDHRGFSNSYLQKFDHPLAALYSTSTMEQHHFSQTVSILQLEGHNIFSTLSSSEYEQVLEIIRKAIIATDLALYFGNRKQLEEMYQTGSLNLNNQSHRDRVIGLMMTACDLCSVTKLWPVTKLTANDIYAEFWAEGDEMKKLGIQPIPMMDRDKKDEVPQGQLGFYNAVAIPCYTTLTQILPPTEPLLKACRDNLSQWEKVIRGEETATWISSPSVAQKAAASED

For the compound `COc1cc(-c2coc(C(=O)C(OC)c3ccc(N4CCOCC4)cc3)n2)cc(OC)c1Br` (centres unmarked) [Compound 2-1, 1-(4-(4-Bromo-3,5-Dimethoxyphenyl)Oxazol-2-Yl)-2-Methoxy-2-(4-Morpholinophenyl)-Ethanone], in the test on C57BL/6 male mice [1], the “reduction of number of avoidance responses (CAR)” value is given as “significantly reduces”. Further, the “reduction of PCP-induced hyperactivity (horizontal locomotor activity)” value is reported as “significantly reduces” in the test with C57BL/6 male mice [2] (10 mg/kg i.p., 20 min before PCP (5 mg/kg, i.p.)) and “effective” in the test with C57BL/6 male mice [2] (10 mg/kg oral gavage, 40 min before PCP (5 mg/kg, i.p.)). For the same compound, the IC50 on PDE10 [3] was at most 1000 nM.

Consider `COc1cc(-c2coc(C(=O)C(OC)c3ccc(-c4nnc(C)o4)cc3)n2)cc(OC)c1Br` (centres unmarked) [Compound 11-1, 1-(4-(4-Bromo-3,5-Dimethoxyphenyl)Oxazol-2-Yl)-2-Methoxy-2-(4-(5-Methyl-1,3,4-Oxadiazol-2-Yl)Phenyl)Ethanone], for which the “reduction of PCP-induced hyperactivity (horizontal locomotor activity)” value in the test on C57BL/6 male mice [2] (10 mg/kg i.p., 5 min before PCP (5 mg/kg, i.p.)) is given as “significantly reduces”. The compound also had an IC50 on PDE10 [3] of at most 1000 nM.

In the case of `CC(C)Cn1c(=O)n(C)c(=O)c2[nH]cnc21` [IBMX], the IC50 with PDE10 [4] was 2600 nM.

On to `Nc1nc2c(ncn2[C@@H]2O[C@@H]3COP(=O)(O)O[C@H]3[C@H]2O)c(=O)[nH]1` [cGMP], for which the Kd at PDE10 [5] is above 9000 nM.
